Where a name gives a salt, the structure may show the parent alone.
Biological target: T1, human BCKDK (Homo sapiens, UniProt O14874)
T1 construct: human BCKDK (residues 31-412 of the protein pre-processing); 6xHis (N, cleaved yes); MBP (N, cleaved yes); TEV protease site (ENLYFQG) (N, cleaved yes); made in house; host or cells: BL21(DE3) E. coli, co-expressed with GroEL-GroES
Assay: In Vitro FRET (TR-FRET) BCKDK activity assay, phosphorylation of BCKDHE1α-E2 fusion substrate
Assay type: biochemical
Conditions: geometric mean, two significant figures; 15 μM ATP
Protocol: BCKDK protein was generated using a pET vector containing from N- to C-terminus: 6×His, MBP, a TEV protease site (ENLYFQG), a biotin acceptor peptide ([…]), and human BCKDK (residues 31-412 of the protein pre-processing). Protein was co-expressed with GroEL-GroES in BL21(DE3) E. coli in LB media, and protein production was induced with 0.5 mM IPTG and 0.5 mg/mL L-arabinose at an OD600 of 1 and grown for 16 h at 26° C. Bacteria were lysed using a Microfluidizer in 100 mM potassium phosphate pH 7.5, 500 mM NaCl, 0.1 mM EDTA, 1% Tween-20, 0.25% Triton X-100, 10% glycerol, 1 mM DTT, and protease inhibitors. MBP-tagged protein was purified by affinity chromatography using amylose resin, and MBP was removed from BCKDK by TEV protease incubation followed by gel filtration chromatography in 50 mM HEPES pH 7.5, 500 mM NaCl, 300 mM L-Arginine, 2 mM MgCl2, 1 mM DTT, and 10% glycerol.
A pET vector containing E. coli LplA was expressed in BL21(DE3) E. coli in LB media, and protein production was induced with 0.75 mM IPTG at an OD600 of 1 and grown for 16 h at 30° C. Bacteria were lysed using a Microfluidizer in 50 mM sodium phosphate buffer pH 7.5, 350 mM NaCl, 1.5 mM MgCl2, and 1 mM DTT. LplA protein was precipitated from clarified lysate with 1 M ammonium sulfate and further purified by gel filtration chromatography in 50 mM sodium phosphate pH 7.5, 350 mM NaCl, 1.5 mM MgCl2, 1 mM DTT, and 10% glycerol.
The BCKDHE1α-E2 fusion substrate was cloned into a pET vector and contained from N- to C-terminus: the lipoyl binding domain of E2 (residues 62-160 pre-processing), a TEV protease site (LENLYFQG), residues 331-345 (pre-processing) from E1α, and 6×His (Tso, S. C. et al., J Biol Chem 2014, 289 (30), 20583-20593). The fusion substrate was expressed in BL21(DE3) E. coli in LB media, and protein production was induced with 0.75 mM IPTG at an OD600 of 1 and grown for 16 h at 30° C. Bacteria were lysed using a Microfluidizer in 50 mM sodium phosphate pH 7.5, 350 mM NaCl, 10 mM imidazole, 10% glycerol, 1 mM DTT, and protease inhibitors. […] For lipoylation, fusion substrate was incubated with LplA at a 10:1 (substrate:LplA) ratio in 20 mM sodium phosphate pH 7.4, 6 mM MgCl2, 4 mM ATP, 2 mM DTT, 3 mM DL-6,8-thioctic acid at 37° C. The reaction was monitored using an Agilent 6530 Q-TOF coupled to an Agilent 1290 UPLC. The final lipoylated fusion substrate was purified by gel filtration chromatography in 50 mM HEPES pH 7.5, 350 mM NaCl, 1.5 mM MgCl2, 1 mM DTT, 10% glycerol.
BCKDK activity was monitored by phosphorylation of a HIS-tagged fusion BCKDHE1α-E2 substrate protein as described above and was detected using a time resolved-fluorescence resonance energy transfer (TR-FRET) assay system. Compounds were spotted into a 384 well plate, and purified human BCKDK protein was added to the plated compound. After incubation, the LBD-linker-E1 phosphorylation sequence was added in the presence of 15 μM ATP. The reaction was terminated with EDTA. Phosphorylated substrate was recognized by the addition of rabbit anti-E1 phospho Ser293 antibodies (Bethyl Laboratories—A304-672A), and the TR-FRET signal was developed by addition of anti-HIS donor molecules (Europium; Perkin Elmer—AD0205, AD0110, AD0111) and anti-Rabbit acceptor molecules (Ulight; Perkin Elmer—TRF502D, TRF502M, TRF502R). Recognition of phosphorylated E1 brought donor and acceptor molecules into close proximity, and excitation at 320 nm caused energy transfer from the Europium donor to the Ulight acceptor dye, which in turn generated light at 665 nm. Signal intensity was proportional to the level of BCKDK-mediated substrate phosphorylation. Reactions were normalized to zero percent effect with DMSO and one hundred percent effect with 600 μM Radicicol, a known BCKDK inhibitor. IC50 curves were generated using ABASE software (IDBS, Boston Mass.).

**Q.** How did the IC50 turn out when `Clc1cc(Br)c(-c2nnn[nH]2)s1` [Example 19, 5-(3-bromo-5-chlorothiophen-2-yl)-1H-tetrazole] was run?
**A.** 4.1 µM

**Q.** For `CCc1cc(Cl)sc1-c1nnn[nH]1` [Example 27, 5-(5-chloro-3-ethylthiophen-2-yl)-1H-tetrazole], which IC50 is on record?
**A.** 4 µM

**Q.** With `CCc1cc(Br)c(-c2nnn[nH]2)s1` [Example 13, 5-(3-Bromo-5-ethylthiophen-2-yl)-1H-tetrazole] as the compound, how does the IC50 read?
**A.** > 83 µM

**Q.** For `Cc1cc(C(F)F)sc1-c1nnn[nH]1` [Example 21, 5-[5-(difluoromethyl)-3-methylthiophen-2-yl]-1H-tetrazole], which IC50 is on record?
**A.** 3.6 µM

**Q.** Which IC50 does the source give for `Clc1cc(C2CC2)c(-c2nnn[nH]2)s1` [Example 29, 5-(5-chloro-3-cyclopropylthiophen-2-yl)-1H-tetrazole] here?
**A.** 10 µM

**Q.** Which IC50 does the source give for `Cc1cc(C(F)(F)F)sc1-c1nnn[nH]1` [Example 20, 5-[3-methyl-5-(trifluoromethyl)thiophen-2-yl]-1H-tetrazole] here?
**A.** 3.7 µM

**Q.** For `Oc1ccsc1-c1nnn[nH]1` [Example 37, 2-(1H-tetrazol-5-yl)thiophene-3-ol], which IC50 is on record?
**A.** 13 µM

**Q.** With `FC(F)c1cc(Cl)sc1-c1nnn[nH]1` [Example 6, 5-[5-Chloro-3-(difluoromethyl)thiophen-2-yl]-1H-tetrazole] as the compound, how does the IC50 read?
**A.** 1.1 µM

**Q.** How did the IC50 turn out when `c1cc(C2CC2)c(-c2nnn[nH]2)s1` [Example 26, 5-(3-cyclopropylthiophen-2-yl)-1H-tetrazole] was run?
**A.** > 300 µM

**Q.** How did the IC50 turn out when `CCc1ccsc1-c1nnn[nH]1` [Example 25, 5-(3-ethylthiophen-2-yl)-1H-tetrazole] was run?
**A.** 9.8 µM

**Q.** `Cc1cc(Cl)c(-c2nnn[nH]2)s1` [Example 14, 5-(3-chloro-5-methylthiophen-2-yl)-1H-tetrazole] was tested. Which IC50 did it give?
**A.** 2.6 µM

**Q.** For `CCc1cc(C)c(-c2nnn[nH]2)s1` [Example 32, 5-(5-ethyl-3-methylthiophen-2-yl)-1H-tetrazole], which IC50 is on record?
**A.** 15 µM

**Q.** With `Clc1ccsc1-c1nnn[nH]1` [Example 7, 5-(3-chlorothiophen-2-yl)-1H-tetrazole] as the compound, how does the IC50 read?
**A.** 11 µM

**Q.** With `Cc1c(-c2nnn[nH]2)sc(Cl)c1F` [Example 10, 5-(5-Chloro-4-fluoro-3-methylthiophen-2-yl)-1H-tetrazole] as the compound, how does the IC50 read?
**A.** 0.81 µM

**Q.** How did the IC50 turn out when `Brc1csc(-c2nnn[nH]2)c1Br` [Example 17, 5-(3,4-dibromothiophen-2-yl)-1H-tetrazole] was run?
**A.** 6.1 µM

**Q.** `Brc1ccsc1-c1nnn[nH]1` [Example 35, 5-(3-bromothiophen-2-yl)-1H-tetrazole] was tested. Which IC50 did it give?
**A.** 1.4 µM

**Q.** `FC(F)c1ccsc1-c1nnn[nH]1` [Example 5, 5-[3-(Difluoromethyl)thiophen-2-yl]-1H-tetrazole] was tested. Which IC50 did it give?
**A.** 2.5 µM

**Q.** With `CCc1c(Cl)csc1-c1nnn[nH]1` [Example 3, 5-(4-Chloro-3-ethylthiophen-2-yl)-1H-tetrazole, ammonium salt] as the compound, how does the IC50 read?
**A.** 1.1 µM

**Q.** `Cc1c(-c2nnn[nH]2)sc(Cl)c1Cl` [Example 11, 5-(4,5-Dichloro-3-methylthiophen-2-yl)-1H-tetrazole] was tested. Which IC50 did it give?
**A.** 1.9 µM

**Q.** Which IC50 does the source give for `Cc1ccsc1-c1nnn[nH]1` [Example 36, 5-(3-methylthiophen-2-yl)-1H-tetrazole] here?
**A.** 6 µM

**Q.** `Fc1cc(Br)c(-c2nnn[nH]2)s1` [Example 34, 5-(3-bromo-5-fluorothiophen-2-yl)-1H-tetrazole] was tested. Which IC50 did it give?
**A.** 2.7 µM

**Q.** For `Oc1cc(Br)sc1-c1nnn[nH]1` [Example 15, 5-bromo-2-(1H-tetrazol-5-yl)thiophene-3-ol], which IC50 is on record?
**A.** 13 µM

**Q.** Which IC50 does the source give for `Fc1cc(Cl)c(-c2nnn[nH]2)s1` [Example 31, 5-(3-chloro-5-fluorothiophen-2-yl)-1H-tetrazole] here?
**A.** 3.6 µM

**Q.** With `Cc1cc(Br)sc1-c1nnn[nH]1` [Example 33, 5-(5-bromo-3-methylthiophen-2-yl)-1H-tetrazole] as the compound, how does the IC50 read?
**A.** 3.1 µM

**Q.** Which IC50 does the source give for `Cc1c(-c2nnn[nH]2)sc(Br)c1Br` [Example 18, 5-(4,5-dibromo-3-methylthiophen-2-yl)-1H-tetrazole] here?
**A.** 4.5 µM

**Q.** `FC(F)(F)c1cc(Cl)sc1-c1nnn[nH]1` [Example 23, 5-[5-chloro-3-(trifluoromethyl)thiophen-2-yl]-1H-tetrazole] was tested. Which IC50 did it give?
**A.** 7.2 µM

**Q.** For `Clc1cc(Cl)c(-c2nnn[nH]2)s1` [Example 12, 5-(3,5-Dichlorothiophen-2-yl)-1H-tetrazole, ammonium salt], which IC50 is on record?
**A.** 2 µM

**Q.** `CCc1c(Br)csc1-c1nnn[nH]1` [Example 4, 5-(4-Bromo-3-ethylthiophen-2-yl)-1H-tetrazole, ammonium salt] was tested. Which IC50 did it give?
**A.** 1.1 µM

**Q.** How did the IC50 turn out when `COc1cc(Br)sc1-c1nnn[nH]1` [Example 16, 5-(5-bromo-3-methoxythiophen-2-yl)-1H-tetrazole] was run?
**A.** 4.5 µM

**Q.** With `Cc1cc(F)sc1-c1nnn[nH]1` [Example 2, 5-(5-Fluoro-3-methylthiophen-2-yl)-1H-tetrazole] as the compound, how does the IC50 read?
**A.** 3.6 µM

**Q.** With `FC(F)(F)c1ccsc1-c1nnn[nH]1` [Example 22, 5-[3-(trifluoromethyl)thiophen-2-yl]-1H-tetrazole] as the compound, how does the IC50 read?
**A.** 11 µM

**Q.** `Clc1cc(Br)sc1-c1nnn[nH]1` [Example 8, 5-(5-Bromo-3-chlorothiophen-2-yl)-1H-tetrazole] was tested. Which IC50 did it give?
**A.** 3.4 µM

**Q.** For `COc1ccsc1-c1nnn[nH]1` [Example 24, 5-(3-methoxythiophen-2-yl)-1H-tetrazole], which IC50 is on record?
**A.** > 300 µM

**Q.** How did the IC50 turn out when `Fc1ccsc1-c1nnn[nH]1` [Example 28, 5-(3-fluorothiophen-2-yl)-1H-tetrazole] was run?
**A.** 16 µM

**Q.** `Fc1cc(Cl)sc1-c1nnn[nH]1` [Example 30, 5-(5-chloro-3-fluorothiophen-2-yl)-1H-tetrazole] was tested. Which IC50 did it give?
**A.** 2.9 µM

Reference: US20220363673A1, “5-(Thiophen-2-YL)-1 H-Tetrazole Derivative as BCKDK Inhibitors Useful for Treating Various Diseases” (Pfizer Inc., priority 2019, published 2022)
